Earlier results on one substance are cited in patent US20030134332A1, “Diagnosis of endothelial dysfunction by nitric oxide bioactivity index” (priority 2001, published 2003).

For series [1], the system named is plasma isoprostane (oxidant stress marker). The settings on record: diabetic men, 600 mg twice daily for seven days.
Series [2] relates to wound healing in diabetic mice.

For the substance “2-(2,3-dihydro-5-acetoxy-4,6,7-trimethylbenzofuranyl) acetic acid [raxofelast]”, in series [1], the “fall of plasma isoprostane levels in diabetics” value is on record as 50%. Besides, the “effect on wound healing” value in series [2] is on record as “stimulates wound healing”.
